Measured values reported in PubChem BioAssay AID1259407 (Chemical Carcinogenesis Research Information System (CCRIS), 2018).
Calls of active or inactive are those of the source. How the calls were made is not given here.

Tested on: CCRIS mutagenicity, Ames/micronucleus/aberration tests
Experiment: CCRIS mutagenicity studies
[1] = Test System: AMES SALMONELLA TYPHIMURIUM, Strain/Indicator: TA100, Metabolic Activation: NONE, Method: PREINCUBATION
[2] = Test System: AMES SALMONELLA TYPHIMURIUM, Strain/Indicator: TA1535, Metabolic Activation: NONE, Method: PREINCUBATION
[3] = Test System: AMES SALMONELLA TYPHIMURIUM, Strain/Indicator: TA1537, Metabolic Activation: NONE, Method: PREINCUBATION

With `Nc1ccccc1S` the mutagenic call (End Point: In vitro chromosomal aberrations, Test System: Chinese hamster lung (CHL/IU) cells, Metabolic Activation: Rat, Liver, S9, Phenobarbital and 5,6-benzoflavone) was “active; positive (structural changes and ploidy)”, the mutagenic call (Test System: AMES SALMONELLA TYPHIMURIUM, Strain/Indicator: TA98, Metabolic Activation: RAT, LIVER, S-9, PHENOBARBITAL AND BETA-NAPHTHOFLAVONE, Method: PREINCUBATION) was “inactive; negative” and the mutagenic call [1] was “inactive; negative”. For the same compound, the mutagenic call (Test System: AMES SALMONELLA TYPHIMURIUM, Strain/Indicator: TA100, Metabolic Activation: RAT, LIVER, S-9, PHENOBARBITAL AND BETA-NAPHTHOFLAVONE, Method: PREINCUBATION) was “inactive; negative”, the mutagenic call [2] was “inactive; negative” and the mutagenic call (Test System: AMES SALMONELLA TYPHIMURIUM, Strain/Indicator: TA1535, Metabolic Activation: RAT, LIVER, S-9, PHENOBARBITAL AND BETA-NAPHTHOFLAVONE, Method: PREINCUBATION) was “inactive; negative”. The mutagenic call [3] was “inactive; negative”, the mutagenic call (Test System: AMES SALMONELLA TYPHIMURIUM, Strain/Indicator: TA1537, Metabolic Activation: RAT, LIVER, S-9, PHENOBARBITAL AND BETA-NAPHTHOFLAVONE, Method: PREINCUBATION) was “inactive; negative” and the mutagenic call (Test System: AMES SALMONELLA TYPHIMURIUM, Strain/Indicator: TA1537, Metabolic Activation: RAT, LIVER, S-9, SODIUM PHENOBARBITAL AND 5,6-BENZOFLAVONE, Method: PREINCUBATION) was “inactive; negative”. For the same compound, the mutagenic call (Test System: E. COLI, Strain/Indicator: WP2UVRA, Metabolic Activation: NONE, Method: PREINCUBATION) was “inactive; negative” and the mutagenic call (Test System: E. COLI, Strain/Indicator: WP2UVRA, Metabolic Activation: RAT, LIVER, S-9, PHENOBARBITAL AND BETA-NAPHTHOFLAVONE, Method: PREINCUBATION) was “inactive; negative”.
In the case of `CN(C)c1ccc(N=O)cc1`, the mutagenic call (Test System: AMES SALMONELLA TYPHIMURIUM, Strain/Indicator: TA100, Metabolic Activation: NONE, Method: FLUCTUATION TEST) is reported as “active; positive”.
`COc1cc2c(c3oc(=O)c4c(c13)CCOC4=O)[C@@H]1C=CO[C@@H]1O2` was tested, and the mutagenic call (Test System: AMES SALMONELLA TYPHIMURIUM, Strain/Indicator: TA98, Metabolic Activation: RAT, LIVER, MICROSOMES, PHENOBARBITAL, Method: STANDARD PLATE) was “active; positive”, the mutagenic call (Test System: AMES SALMONELLA TYPHIMURIUM, Strain/Indicator: TA98, Metabolic Activation: RAT, LIVER, S-9, PHENOBARBITAL, Method: STANDARD PLATE) was “active; positive” and the mutagenic call [1] was “active; positive”. For the same compound, the mutagenic call (Test System: AMES SALMONELLA TYPHIMURIUM, Strain/Indicator: TA100, Metabolic Activation: RAT, LIVER, MICROSOMES, PHENOBARBITAL, Method: STANDARD PLATE) was “active; positive”, the mutagenic call (Test System: AMES SALMONELLA TYPHIMURIUM, Strain/Indicator: TA100, Metabolic Activation: RAT, LIVER, S-9, PHENOBARBITAL, Method: PREINCUBATION) was “active; positive” and the mutagenic call (Test System: UDS HUMAN FIBROBLASTS, Strain/Indicator: THY INCORP (NON-S-PHASE), Metabolic Activation: MOUSE, LIVER, S-9, Method: AUTORADIOGRAPHY) was “active; positive”. The mutagenic call (Test System: UDS RODENT HEPATOCYTES, Strain/Indicator: THY INCORP (NON-S-PHASE), Method: AUTORADIOGRAPHY) was “active; positive”.
With `Nc1ccc2nc3ccccc3c(N)c2c1` the mutagenic call [2] was “inactive; negative”, the mutagenic call (Test System: AMES SALMONELLA TYPHIMURIUM, Strain/Indicator: TA1535, Metabolic Activation: RAT, LIVER, S-9, TETRACHLOROBIPHENYL, Method: PREINCUBATION) was “inactive; negative” and the mutagenic call [3] was “active; positive”. The mutagenic call (Test System: AMES SALMONELLA TYPHIMURIUM, Strain/Indicator: TA1537, Metabolic Activation: RAT, LIVER, S-9, TETRACHLOROBIPHENYL, Method: PREINCUBATION) was “active; positive”, the mutagenic call (Test System: AMES SALMONELLA TYPHIMURIUM, Strain/Indicator: TA1538, Metabolic Activation: NONE, Method: PREINCUBATION) was “inactive; negative” and the mutagenic call (Test System: AMES SALMONELLA TYPHIMURIUM, Strain/Indicator: TA1538, Metabolic Activation: RAT, LIVER, S-9, TETRACHLOROBIPHENYL, Method: PREINCUBATION) was “active; positive”. The mutagenic call (Test System: AMES SALMONELLA TYPHIMURIUM, Strain/Indicator: TA1977, Metabolic Activation: NONE, Method: PREINCUBATION) was “active; positive”, the mutagenic call (Test System: AMES SALMONELLA TYPHIMURIUM, Strain/Indicator: TA1977, Metabolic Activation: RAT, LIVER, S-9, TETRACHLOROBIPHENYL, Method: PREINCUBATION) was “active; positive” and the mutagenic call (Test System: AMES SALMONELLA TYPHIMURIUM, Strain/Indicator: TA1978, Metabolic Activation: RAT, LIVER, S-9, TETRACHLOROBIPHENYL, Method: PREINCUBATION) was “inactive; negative”.
In the case of `CN(CCCC(=O)O)N=O`, the mutagenic call (Test System: AMES SALMONELLA TYPHIMURIUM, Strain/Indicator: TA1535, Metabolic Activation: RAT, LIVER, S-9, KC500 OR PHENOBARBITAL, Method: LIQUID SUSPENSION) is reported as “active; positive”.
With `CC(=O)c1ccc(N=O)cc1` the mutagenic call (Test System: AMES SALMONELLA TYPHIMURIUM, Strain/Indicator: TA98, Metabolic Activation: NONE, Method: STANDARD PLATE) was “active; positive”, the mutagenic call (Test System: AMES SALMONELLA TYPHIMURIUM, Strain/Indicator: TA98, Metabolic Activation: RAT, LIVER, S-9, AROCLOR 1254, Method: STANDARD PLATE) was “active; positive” and the mutagenic call (Test System: AMES SALMONELLA TYPHIMURIUM, Strain/Indicator: TA100, Metabolic Activation: NONE, Method: STANDARD PLATE) was “active; positive”. The mutagenic call (Test System: AMES SALMONELLA TYPHIMURIUM, Strain/Indicator: TA100, Metabolic Activation: RAT, LIVER, S-9, AROCLOR 1254, Method: STANDARD PLATE) was “inactive; negative”.
For `Cc1ccc2cc3c(ccc4ccccc43)c3c2c1C(=O)C3`, the mutagenic call (Test System: CHINESE HAMSTER V-79, Strain/Indicator: V-79/8-AZAGUANINE, Metabolic Activation: RAT, LIVER, S-9, AROCLOR 1254, Method: STANDARD PLATE) was “active; positive”.
With `CC(C)(C)CN(N=O)C(N)=O` the mutagenic call (Test System: E. COLI, Strain/Indicator: HS30R UVRA, Metabolic Activation: NONE, Method: PREINCUBATION) was “active; positive” and the mutagenic call (Test System: E. COLI, Strain/Indicator: O16 POLA, Metabolic Activation: NONE, Method: PREINCUBATION) was “active; positive”.
With `O[C@@H]1[C@H]2O[C@H]2c2c(ccc3ccc4ccccc4c23)[C@H]1O` the mutagenic call (Test System: E. COLI, Strain/Indicator: CL101P, Metabolic Activation: NONE, Method: PREINCUBATION) was “active; positive”, the mutagenic call (Test System: E. COLI, Strain/Indicator: CL102P, Metabolic Activation: NONE, Method: PREINCUBATION) was “active; positive” and the mutagenic call (Test System: E. COLI, Strain/Indicator: CL103P, Metabolic Activation: NONE, Method: PREINCUBATION) was “active; positive”. For the same compound, the mutagenic call (Test System: E. COLI, Strain/Indicator: CL104P, Metabolic Activation: NONE, Method: PREINCUBATION) was “active; positive”, the mutagenic call (Test System: E. COLI, Strain/Indicator: CL105P, Metabolic Activation: NONE, Method: PREINCUBATION) was “active; positive” and the mutagenic call (Test System: E. COLI, Strain/Indicator: CL106P, Metabolic Activation: NONE, Method: PREINCUBATION) was “active; positive”.
`c1ccc2c(c1)Oc1ccccc1O2` was tested, and the mutagenic call (Test System: AMES SALMONELLA TYPHIMURIUM, Strain/Indicator: TA98(1,8-DNP6), Metabolic Activation: RAT, LIVER, S-9, PCB, Method: SUSPENSION) was “inactive; negative”, the mutagenic call (Test System: AMES SALMONELLA TYPHIMURIUM, Strain/Indicator: TA98(NR), Metabolic Activation: RAT, LIVER, S-9, PCB, Method: SUSPENSION) was “inactive; negative” and the mutagenic call (Test System: AMES SALMONELLA TYPHIMURIUM, Strain/Indicator: TA98, Metabolic Activation: NONE, Method: SUSPENSION) was “inactive; negative”. The mutagenic call (Test System: AMES SALMONELLA TYPHIMURIUM, Strain/Indicator: TA98, Metabolic Activation: RAT, LIVER, S-9, PCB, Method: SUSPENSION) was “inactive; negative”, the mutagenic call (Test System: AMES SALMONELLA TYPHIMURIUM, Strain/Indicator: TA100, Metabolic Activation: NONE, Method: SUSPENSION) was “inactive; negative” and the mutagenic call (Test System: AMES SALMONELLA TYPHIMURIUM, Strain/Indicator: TA100, Metabolic Activation: RAT, LIVER, S-9, PCB, Method: SUSPENSION) was “inactive; negative”.
